Here are results for five compounds from patent US12570667B2, “Compounds with antibacterial and anti viral activities” (priority 2020, dated 2026).

Values after ≈ are worked out from the molar mass of the structure shown. Like-named read-outs stand apart in the source and are kept apart here.

The term MIC denotes the smallest concentration in the dilution series that meets the test's criterion for growth inhibition. Read a low MIC as inhibition by little substance. By IC50 is commonly meant the midpoint of a concentration-inhibition curve.

The test system of data set [1] is S. aureus. Nature of the data set: Minimum inhibitory concentration by micro-dilution method. In kind it is cell-based. As to conditions: Staphylococcus aureus; Gram-positive bacteria S. aureus. Here is the method:
(§1) MIC determination: Minimum inhibitory concentration was determined using micro-dilution method in the 96 well plates. 20 μl from 1 mg/ml stock was mixed with culture to get 66 μg/ml concentration and serially diluted in further well to get a concentration of 33 μg/ml, 16.5 μg/ml and so on, refer FIG. 1.
Background: Dilution methods test growth across graded concentrations, often in twofold steps.

In data set [2] the test system is E. coli. The data set is described as above. In kind it is cell-based. As to conditions: Gram-negative organism E. coli; for MIC: Escherichia coli. Here is the method:
as §1

In data set [3] the test system is S. aureus. The data set can be described thus: Antibacterial activity by spread plate-disc diffusion method. In kind it is cell-based. As to conditions: 20 μl from 1 mg/ml stock per disc, 37° C., 24 h, "0" indicates no antibacterial activity. Here is the method:
(§2) In an embodiment, the antibacterial activity of nigericin and compounds of formula I are determined by the Disc diffusion method. […] The compounds of formula I are found to be inhibiting both gram-positive and gram-negative bacteria.
(§3) Nigericin along with compounds of formula I were tested against Gram-positive (S. aureus) and Gram-negative (E. coli) test organisms by spread plate-disc diffusion method. 20 μl from 1 mg/ml concentration stock was used per disc for each test compound and plated were incubated at 37° C. for 24 h. After the incubation period zone of inhibition was measured.
Background: A growth-free zone around the sample is the usual read-out of agar diffusion tests.

Data set [4] deals with E. coli. Described as above. As to conditions: 20 μl from 1 mg/ml stock per disc, 37° C., 24 h, "0" indicates no antibacterial activity. In kind it is cell-based. Here is the method:
as §2, §3

Data set [5] is described as follows: In-vitro toxicity, MTT assay. In kind it is cell-based, mouse. As to conditions: mouse, wild-type mouse embryonic fibroblast cells (WTMEFs), read-out: Cytotoxicity IC50; for IC50 at 2 h: 2 h treatment; for IC50 at 24 h: 24 h treatment. The method, then:
(§4) In a preferred embodiment, nigericin and compounds of formula I are tested for toxicity on Wild type mouse fibroblast cell lines using 3-(4,5-dimethylthiazol-2-yl)-2,5-diphenyltetrazolium bromide assay (MTT assay).
(§5) Wild-type mouse fibroblast cell line (WTMEFs) was used to assess the toxicity associated with nigericin and its fluorinated analogues for the viability using 3-(4,5-dimethylthiazol-2-yl)-2,5-diphenyltetrazolium bromide assay (MTT assay). WTMEFs cell line was seeded in 96-well plates at a density of 5000 cells per well in […] DMEM media containing 10% FBS. The cell lines were incubated for 24 h in a CO2 incubator at 37° C. After 24 h, the drug was added at a concentration of […] and incubated for 2 h and 24 h. MTT assay was carried out to verify the cell viability after 2 h and 24 h of drug treatment in respective plates. All drug concentration was used in triplicate (n=3).
In general terms: Formazan colour is commonly taken as a measure of viable cells.

In data set [6] the test system is Wild-type mouse fibroblast cell line (WTMEFs). Nature of the data set: In-vitro toxicity, MTT assay. In kind it is cell-based. As to conditions: 24 h treatment, read-out: Cytotoxicity IC50. The method, then: as §4, §5
For data set [7], the system named is Polio Virus. As to conditions: read-out: effective concentration (EC50), inhibition of viral RNA synthesis; cited from earlier work.

For the compound `CO[C@@H]1C[C@@H](C[C@H]2CC[C@H](C)[C@H]([C@@H](C)C(=O)O)O2)O[C@]2(O[C@](C)([C@H]3CC[C@@](C)([C@@H]4O[C@@H]([C@H]5O[C@@](O)(CO)[C@H](C)C[C@@H]5C)C[C@@H]4C)O3)C[C@H]2C)[C@@H]1C` [Nigericin, reference compound], it took 0.3 µM (≈ 0.217 µg/mL) to inhibit growth in data set [1] (MIC). Further, the “Minimum inhibitory concentration (MIC)” value in data set [2] is recorded as “did not show any inhibition”. In addition, the results for the “Antibacterial activity by disc diffusion method (Zone measured in mm)” value (shortened to “Antibacterial activity”) in data set [3] and in data set [4] were 22 mm and 0 mm, respectively. Further, the concentration for half-maximal inhibition (IC50) at 2 h in data set [5] and in data set [5] (unit mM) was around 0.01 mM each time. Besides, the IC50 at 24 h in data set [5] and in data set [5] (unit mM) was around 0.01 mM in each case. In data set [6], the half-maximal inhibitory concentration (IC50) stood at 9.22 µM. The EC50 in data set [7] is around 1 µM.
As to `COC1C[C@@H](C[C@H]2CC[C@H](C)C([C@@H](C)C(=O)Nc3ccc(F)cc3)O2)O[C@]2(O[C@](C)(C3CC[C@@](C)(C4OC(C5O[C@@](O)(CO)[C@H](C)C[C@@H]5C)C[C@@H]4C)O3)C[C@H]2C)C1C` (stereo partly drawn) [Analog N-5], the MIC stood at 5 µM (≈ 4.09 µg/mL) in data set [1] and 0.3 µM (≈ 0.245 µg/mL) in data set [2]. Also, the “Antibacterial activity” value in data set [3] turned out to be 23 mm; in data set [4], 30 mm. The IC50 at 2 h in data set [5] and in data set [5] (unit mM) was above 0.1 mM in each case. The IC50 at 24 h in data set [5] and in data set [5] (unit mM) was 0.0598 mM each time.
In the case of `COc1ccc(OC(=O)[C@H](C)C2O[C@@H](C[C@@H]3CC(OC)C(C)[C@]4(O3)O[C@](C)(C3CC[C@@](C)(C5OC(C6O[C@@](O)(CO)[C@H](C)C[C@@H]6C)C[C@@H]5C)O3)C[C@H]4C)CC[C@@H]2C)cc1` (stereo partly drawn) [Analog N-2], the “Antibacterial activity” value in data set [3] and in data set [4] was 0 mm each time.
`COC1C[C@@H](C[C@H]2CC[C@H](C)C([C@@H](C)C(=O)Oc3ccccc3)O2)O[C@]2(O[C@](C)(C3CC[C@@](C)(C4OC(C5O[C@@](O)(CO)[C@H](C)C[C@@H]5C)C[C@@H]4C)O3)C[C@H]2C)C1C` (stereo partly drawn) [Analog N-1, phenyl (2R)-2-((3S,6R)-6-(((2S,4R,5R,7R)-2-((2S,3′S)-5′-((3S,5R,6R)-6-hydroxy-6-(hydroxymethyl)-3,5-dimethyltetrahydro-2H-pyran-2-yl)-2,3′-dimethyloctahydro-[2,2′-bifuran]-5-yl)-9-methoxy-2,4,10-trimethyl-1,6-dioxaspiro[4.5]decan-7-yl)methyl)-3-methyltetrahydro-2H-pyran-2-yl)propanoate]: the “Antibacterial activity” value in data set [3] and in data set [4] was 0 mm each time.
Consider `COC1C[C@@H](C[C@H]2CC[C@H](C)C([C@@H](C)C(=O)Nc3ccccc3F)O2)O[C@]2(O[C@](C)(C3CC[C@@](C)(C4OC(C5O[C@@](O)(CO)[C@H](C)C[C@@H]5C)C[C@@H]4C)O3)C[C@H]2C)C1C` (stereo partly drawn) [Analog N-3, (2R)—N-(2-fluorophenyl)-2-((3S,6R)-6-(((2S,4R,5R,7R)-2-((2S,3′S)-5′-((3S,5R,6R)-6-hydroxy-6-(hydroxymethyl)-3,5-dimethyltetrahydro-2H-pyran-2-yl)-2,3′-dimethyloctahydro-[2,2′-bifuran]-5-yl)-9-methoxy-2,4,10-trimethyl-1,6-dioxaspiro[4.5]decan-7-yl)methyl)-3-methyltetrahydro-2H-pyran-2-yl)propanamide], for which the results for the MIC in data set [1] and in data set [2] were 2.5 µM (≈ 2.05 µg/mL) and 0.3 µM (≈ 0.245 µg/mL), respectively. Moreover, the “Antibacterial activity” value in data set [3] came out at 31 mm; in data set [4], 33 mm. For the same compound, the IC50 at 2 h in data set [5] and in data set [5] (unit mM) was above 0.1 mM in each case. Moreover, the IC50 at 24 h in data set [5] and in data set [5] (unit mM) was 0.0669 mM each time.
